Data as given in article PMC7934981, “n-Propyl 6-amino-2,6-dideoxy-2,2-difluoro-β-D-glucopyranoside is a good inhibitor for the β-galactosidase from E. coli” (Medicinal Chemistry Research, 2021).
Where two headings read alike, the source gives them in different places.

Legend:
[1] = molecular target: β-glucosidase from almonds; assay: Glycosidase inhibition, p-nitrophenolate assay; assay type: biochemical; conditions: mean of triplicate experiments, n.a. = no activity
Method: (§1) An in vitro evaluation of these compounds to act as an enzyme inhibitor using a panel of commercially available glycosidases was performed (Table 1) using p-nitrophenolate assays.
(§2) The corresponding p-nitrophenyl glycoside and the inhibitors were dissolved in NaOAc buffer (0.05 M, pH = 6.0) reaching final concentrations of 1.0, 1.11, 1.25, 1.43, 1.67, 2.0, 2.5, 3.33, 5.0, and 10 mM. Further dilutions (if necessary) were made in the ratios 1:60, 1:50, 1:40, 1:30, 1:20, 1:10, and 1:5. The ice-cooled solution of the enzymes was contained between 4.0 and 4.5 U/mL. The kinetic assays were performed in 96-well microtiter plates. The following solutions were pipetted per well: p-nitrophenyl glycoside (100 μL), enzyme (50 μL), inhibitor (100 μL), and standard (p-nitrophenol, 5 μL). Immediately after addition, UV/Vis absorption was measured at 42 °C and λ = 415 nm for 20 min with a single measurement interval of 50 s.

[2] = molecular target: T1, β-galactosidase from E. coli (Escherichia coli, UniProt P00722); assay: Glycosidase inhibition, p-nitrophenolate assay; assay type: biochemical; conditions: mean of triplicate experiments
T1 construct: purchased
Method: as §1, §2

[3] = molecular target: T2, α-galactosidase from green coffee beans (Coffea arabica, UniProt Q42656); assay: Glycosidase inhibition, p-nitrophenolate assay; assay type: biochemical; conditions: mean of triplicate experiments
T2 construct: purchased
Method: as §1, §2

[4] = molecular target: T3, α-glucosidase from Baker’s yeast (Saccharomyces cerevisiae, UniProt P53341); assay: Glycosidase inhibition, p-nitrophenolate assay; assay type: biochemical
T3 construct: purchased
Method: as §1, §2

[5] = Cytotoxicity, sulforhodamine B (SRB) assay, nonmalignant cells; assay type: cell-based, mouse; conditions: NIH 3T3 fibroblasts (nonmalignant); for IC50 at 3 days: nonmalignant NIH 3T3 mouse fibroblasts, no significant cytotoxicity; for EC50 at 3 days: mouse, as restated in the conclusion, NIH 3T3, read-out: EC50, cytotoxicity (SRB assays)
Method: (§3) Low or absent cytotoxicity is a mandatory requirement for subsequent therapeutic use of the compounds as glycosidase inhibitors. Therefore, their cytotoxicity was determined.
(§4) The cell lines were obtained from Department of oncology (Martin-Luther-University Halle-Wittenberg). Cultures were maintained as monolayers in RPMI 1640 medium with L-glutamine (Capricorn Scientific GmbH, Ebsdorfergrund, Germany) supplemented with 10% heat inactivated fetal bovine serum (Sigma-Aldrich Chemie GmbH, Steinheim, Germany) and penicillin/streptomycin (1%, Capricorn Scientific GmbH, Ebsdorfergrund, Germany) at 37 °C in a humidified atmosphere with 5% CO2.
(§5) The cytotoxicity of the compounds was evaluated using the SRB (Kiton-Red S, ABCR) micro culture colorimetric assay using […] cells in 96-well plates with the seeding of the cells on day 0 applying appropriate cell densities to prevent confluence of the cells during the period of the experiment. On day 1, the cells were treated with six different concentrations (1, 3, 7, 12, 20, and 30 μM); thereby, the final concentration of DMSO was always < 0.5%, generally regarded as nontoxic to the cells. On day 4, the supernatant medium was discarded; the cells were fixed with 10% trichloroacetic acid. After another day at 4 °C, the cells were washed in a strip washer and dyed with the SRB solution (100 μL, 0.4% in 1% acetic acid) for about 20 min to be followed by washing of the plates (four times, 1% acetic acid) and air-drying overnight. Furthermore, tris base solution (200 μL, 10 mM) was added to each well and absorbance was measured at λ = 570 nm employing a reader (96-wells, Tecan Spectra, Crailsheim, Germany).

[6] = Cytotoxicity, sulforhodamine B (SRB) assay, cancer cell panel; assay type: cell-based, human; conditions: for EC50 at 3 days: as restated in the conclusion, human cancer cell lines, read-out: EC50, cytotoxicity (SRB assays); for IC50 at 3 days: panel of 15 human cancer cell lines, no significant cytotoxicity
Method: as §3, §4, §5

[7] = system: panel of commercially available glycosidases; assay: Glycosidase panel, type of inhibition and selectivity (p-nitrophenolate assays); assay type: biochemical; conditions: panel of five glycosidases
Method: as §1, §2

[8] = p-nitrophenolate assay, mean of triplicate experiments, read-out: Ki, α-glucosidase from Baker’s yeast

T3 sequence (P53341 whole entry): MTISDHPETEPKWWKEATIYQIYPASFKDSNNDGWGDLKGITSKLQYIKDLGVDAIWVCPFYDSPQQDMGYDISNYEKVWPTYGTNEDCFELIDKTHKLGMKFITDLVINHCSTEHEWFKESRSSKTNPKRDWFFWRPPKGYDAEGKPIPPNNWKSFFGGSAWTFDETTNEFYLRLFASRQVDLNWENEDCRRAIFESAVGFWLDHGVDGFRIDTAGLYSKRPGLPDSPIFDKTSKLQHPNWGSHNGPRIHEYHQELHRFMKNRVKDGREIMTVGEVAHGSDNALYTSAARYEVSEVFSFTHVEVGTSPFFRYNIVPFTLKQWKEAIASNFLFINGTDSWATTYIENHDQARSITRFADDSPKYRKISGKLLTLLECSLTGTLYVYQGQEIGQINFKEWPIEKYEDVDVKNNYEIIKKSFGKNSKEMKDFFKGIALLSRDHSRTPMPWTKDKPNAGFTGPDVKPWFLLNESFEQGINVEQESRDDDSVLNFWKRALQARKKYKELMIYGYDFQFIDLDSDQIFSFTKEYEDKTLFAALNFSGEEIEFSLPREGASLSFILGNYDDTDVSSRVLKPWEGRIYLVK
T2 sequence (Q42656 16-378): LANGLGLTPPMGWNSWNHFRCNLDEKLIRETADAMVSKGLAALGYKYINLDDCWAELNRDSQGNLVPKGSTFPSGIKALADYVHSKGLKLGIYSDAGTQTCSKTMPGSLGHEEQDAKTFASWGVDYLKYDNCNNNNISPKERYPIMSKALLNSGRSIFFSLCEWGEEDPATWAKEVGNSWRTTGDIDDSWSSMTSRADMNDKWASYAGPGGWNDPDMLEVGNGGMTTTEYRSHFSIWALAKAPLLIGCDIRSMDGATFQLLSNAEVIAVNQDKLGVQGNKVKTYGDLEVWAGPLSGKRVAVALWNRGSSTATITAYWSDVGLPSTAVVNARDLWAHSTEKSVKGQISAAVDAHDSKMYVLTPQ
T1 sequence (P00722 2-1024 limits assumed): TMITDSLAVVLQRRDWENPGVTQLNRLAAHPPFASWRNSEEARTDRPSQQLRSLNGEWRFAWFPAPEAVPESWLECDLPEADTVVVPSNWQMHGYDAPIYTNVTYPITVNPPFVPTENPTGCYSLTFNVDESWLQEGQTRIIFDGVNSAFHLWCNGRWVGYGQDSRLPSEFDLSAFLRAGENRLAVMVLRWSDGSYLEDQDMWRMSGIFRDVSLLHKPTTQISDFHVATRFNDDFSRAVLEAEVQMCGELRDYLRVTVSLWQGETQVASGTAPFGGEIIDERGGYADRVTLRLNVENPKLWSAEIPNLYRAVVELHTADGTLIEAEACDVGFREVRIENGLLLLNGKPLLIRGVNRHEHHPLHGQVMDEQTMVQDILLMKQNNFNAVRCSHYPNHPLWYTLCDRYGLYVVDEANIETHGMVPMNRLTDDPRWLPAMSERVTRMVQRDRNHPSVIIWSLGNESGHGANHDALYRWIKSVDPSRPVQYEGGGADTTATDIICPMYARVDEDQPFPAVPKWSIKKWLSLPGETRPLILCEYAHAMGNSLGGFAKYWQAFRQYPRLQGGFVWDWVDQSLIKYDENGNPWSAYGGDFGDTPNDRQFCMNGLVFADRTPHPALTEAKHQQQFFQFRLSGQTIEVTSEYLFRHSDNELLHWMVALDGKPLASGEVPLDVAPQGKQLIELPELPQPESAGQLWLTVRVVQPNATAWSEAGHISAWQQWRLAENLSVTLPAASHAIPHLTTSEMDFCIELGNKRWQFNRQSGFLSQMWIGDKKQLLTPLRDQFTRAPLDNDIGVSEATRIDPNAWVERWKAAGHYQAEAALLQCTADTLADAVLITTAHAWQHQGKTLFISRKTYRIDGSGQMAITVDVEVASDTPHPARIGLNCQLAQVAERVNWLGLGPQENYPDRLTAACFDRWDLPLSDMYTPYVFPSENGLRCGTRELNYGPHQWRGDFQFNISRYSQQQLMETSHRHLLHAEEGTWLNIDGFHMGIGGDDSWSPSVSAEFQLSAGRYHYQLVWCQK

SMILES	Ki [1] [µM]	Ki [2] [µM]	Ki [3] [µM]	Ki [4] [µM]	IC50 at 3 days [5] [µM]	EC50 at 3 days [5] [µM]	EC50 at 3 days [6] [µM]	IC50 at 3 days [6] [µM]	Ki [4, 8] [µM]	selectivity among the glycosidases [7]
OCCN1C[C@H](O)[C@@H](O)[C@H](O)[C@H]1CO [Miglitol, reference compound]	0.21 ± 0.05	0.16 ± 0.06	13.9 ± 0.15	9.92 ± 0.14	–	–	–	–	–	–
CCCO[C@@H]1O[C@H](CN)[C@@H](O)[C@H](O)C1(F)F [compound 8, n-Propyl 6-amino-2,6-dideoxy-2,2-difluoro-β-D-glucopyranoside]	1.76 ± 0.13	0.5 ± 0.09	3.81 ± 0.57	–	> 50	> 50	> 50	> 50	1.83 ± 0.16	nonselective inhibitor
CCCO[C@@H]1O[C@H](CN)[C@@H](O)C(F)(F)[C@H]1O [compound 16, n-Propyl 6-amino-3,6-dideoxy-3,3-difluoro-β-D-ribo-hexopyranoside]	–	2.16 ± 0.93	4.3 ± 0.24	–	> 50	> 50	> 50	> 50	4.13 ± 0.26	–
